Measurements published in article PMC9468151, “Identification of a binding site on soluble RANKL that can be targeted to inhibit soluble RANK-RANKL interactions and treat osteoporosis” (Nature Communications, 2022).
“And” between values parts separate entries of the source, which are not always exact repeats. Equal entries are not always repeated.

What was measured:
T lymphocyte = T lymphocyte cell proliferation assay (CFSE, CD4+/CD8+ flow cytometry); type: cell-based, human; conditions: for CD8+ cells in total cells (%) / CD8+cells in CFSE-cells (%) / CFSE- cells in total cells (%): Healthy donor 2, 9 day
Description: T lymphocyte cell proliferation assay was performed according to a reported method[58] with some modification. Briefly, 5 × 10^6 cells /mL cells were stained 2.5 μM CFSE (Tonbo Biosciences) and incubated at 37 °C for 12 min. Then washed and discarded the supernatant and adjusted the CFSE stained cell to 1.75 × 10^6 cells /mL. Cells were diluted in 1640 completed medium containing 5 μg/mL anti-CD3 antibody (Tonbo Biosciences) to 3 × 10^5 cells/mL and seed in a 96-well plate or 24-well plate that pre-packaged 0.4 μg/well anti-CD28 antibody and 1.6 μg anti-CD28 antibody (24-well) (Tonbo Biosciences). Cells were then cultured for 3 days, 9 days or 12 days. Subsequently, the proportion of CD4^+ and CD8^+ cells was determined by flow cytometry (Beckman Coulter, FC500) according to manufacturer’s instruction of PE-Cyanine7 anti-Human CD8a and PE anti-Human CD4 antibodies (Tonbo Biosciences). Data analyzing was performed by using CXP software (Beckman Coulter, Supplementary Fig. 8).

[1] = tested on: WT sRANKL induced osteoclast formation with H226A/W194A sRANKL; assay: Rescue experiment: WT sRANKL combined with W194A or H226A sRANKL; type: cell-based, mouse; design: osteoclast formation (fig. S4b): unit not given here; conditions: S3-15 10 μM; for OC numbers: 100 ng/mL WT sRANKL
Description: For the osteoclast formation induced by WT and Q238A sRANKL experiments, BMMs were seeded in 96-well plate in density of 6 × 10^3 cell/ well with α-MEM completed medium containing 10 ng/mL M-CSF for 24 h. Then the cells were treated with 0 μM, 0.3 μM, 3 μM and 10 μM and stimulated with 100 ng/mLWT sRANKL or Q238A sRANKL respectively. For the osteoclast formation induced by WT, W194A, and H226A sRANKL experiments, cells were stimulated with 100 ng/mL WT sRANKL combined W194A, H226A sRANKL in different concentrations (50 ng/mL, 200 ng/mL, and 400 ng/mL) with or without 10 μM S3-15. After 5 days, osteoclasts were formed, and applied TRAP-staining as described above. TRAP-positive multinucleated cells with > 3 nuclei were scored as osteoclasts.

[2] = cancer patient donors 1, 3 day, S3-15 conc. 0.2
[3] = cancer patient donors 1, 3 day, S3-15 conc. 1
[4] = cancer patient donors 1, 3 day, S3-15 conc. 5
[5] = cancer patient donors 1, 3 day, S3-15 conc. 10
[6] = healthy donors 2, 9 day, S3-15 conc. 0.2
[7] = healthy donors 2, 9 day, S3-15 conc. 1
[8] = healthy donors 2, 9 day, S3-15 conc. 5
[9] = healthy donors 2, 9 day, S3-15 conc. 10

With `CC(=O)/C(=N\Nc1ccccc1C(=O)O)C(=O)Nc1ccccn1` [S3-15] the “CD8+ cells in total cells (%)” value (T lymphocyte; S3-15 0.2) was 60.09% and 60.2% and 40.04%, the “CD8+cells in CFSE-cells (%)” value (T lymphocyte; S3-15 0.2) was 54.45% and 45.56% and 52.87% and the “CFSE- cells in total cells (%)” value (T lymphocyte; S3-15 0.2) was 42.85% and 34.53% and 42.91%. For the same compound, the “CD8+ cells in total cells (%)” value (T lymphocyte; S3-15 1) was 57.52% and 60.07% and 56.11%, the “CD8+cells in CFSE-cells (%)” value (T lymphocyte; S3-15 1) was 48.8% and 34.73% and 39.45% and the “CFSE- cells in total cells (%)” value (T lymphocyte; S3-15 1) was 48.46% and 65.6% and 38.41%. The “CD8+ cells in total cells (%)” value (T lymphocyte; S3-15 5) was 39.84% and 41.04% and 43.72%, the “CD8+cells in CFSE-cells (%)” value (T lymphocyte; S3-15 5) was 45.39% and 36.07% and 59.1% and the “CFSE- cells in total cells (%)” value (T lymphocyte; S3-15 5) was 43.47% and 38.16% and 54.05%. For the same compound, the “CD8+ cells in total cells (%)” value (T lymphocyte; S3-15 10) was 61.43% and 57.64% and 58.69%, the “CD8+cells in CFSE-cells (%)” value (T lymphocyte; S3-15 10) was 58.1% and 47.19% and 40.24% and the “CFSE- cells in total cells (%)” value (T lymphocyte; S3-15 10) was 51.79% and 37.98% and 32.24%. For the same compound, the “CD4+cells in total cells (%)” value (T lymphocyte; [2]) was 12.08% and 10.6% and 16.64% and 9.84%, the “CFSE-CD4+cells in CFSE-cells (%)” value (T lymphocyte; [2]) was 2.66% and 4.81% and 10.71% and 8.92% and the “CD4+cells in total cells (%)” value (T lymphocyte; [3]) was 18.36% and 15% and 12.2% and 13.48%. For the same compound, the “CFSE-CD4+cells in CFSE-cells (%)” value (T lymphocyte; [3]) was 2.71% and 4.16% and 9.18% and 4.63%, the “CD4+cells in total cells (%)” value (T lymphocyte; [4]) was 12.53% and 13.43% and 14.21% and 19.52% and the “CFSE-CD4+cells in CFSE-cells (%)” value (T lymphocyte; [4]) was 4.9% and 5.71% and 2.54% and 4.68%. The “CD4+cells in total cells (%)” value (T lymphocyte; [5]) was 8.57% and 13.89% and 11.58% and 13%, the “CFSE-CD4+cells in CFSE-cells (%)” value (T lymphocyte; [5]) was 6.23% and 7.1% and 4.66% and 4.48% and the “CD4+cells in total cells (%)” value (T lymphocyte; healthy donors 1, 3 day, S3-15 conc. 0.2) was 58.71% and 65.57% and 73.86% and 89.25%. For the same compound, the “CD4+cells in total cells (%)” value (T lymphocyte; healthy donors 1, 3 day, S3-15 conc. 1) was 88.98% and 73.53% and 85.9% and 87.87%, the “CD4+cells in total cells (%)” value (T lymphocyte; healthy donors 1, 3 day, S3-15 conc. 5) was 88.97% and 73.33% and 75.77% and 81.04% and the “CD4+cells in total cells (%)” value (T lymphocyte; healthy donors 1, 3 day, S3-15 conc. 10) was 84.3% and 76.41% and 71.29%. For the same compound, the “CFSE-CD4+cells in CFSE-cells (%)” value (T lymphocyte; healthy donors 1, 12 day, S3-15 conc. 0.2) was 11.71% and 10.81% and 13.35% and 13.65%, the “CFSE-CD4+cells in CFSE-cells (%)” value (T lymphocyte; healthy donors 1, 12 day, S3-15 conc. 1) was 10.81% and 12.31% and 11.84% and 10.58% and the “CFSE-CD4+cells in CFSE-cells (%)” value (T lymphocyte; healthy donors 1, 12 day, S3-15 conc. 5) was 11% and 11.24% and 11.79% and 10.58%. For the same compound, the “CFSE-CD4+cells in CFSE-cells (%)” value (T lymphocyte; healthy donors 1, 12 day, S3-15 conc. 10) was 15.92% and 12.12% and 12.19% and 12.32%, the “CD4+cells in total cells (%)” value (T lymphocyte; [6]) was 20.78% and 19.93% and 21.03% and the “CFSE-CD4+cells in CFSE-cells (%)” value (T lymphocyte; [6]) was 37.84% and 45.82% and 32.47%. For the same compound, the “CD4+cells in total cells (%)” value (T lymphocyte; [7]) was 25.04% and 25.92% and 25.62%, the “CFSE-CD4+cells in CFSE-cells (%)” value (T lymphocyte; [7]) was 42.79% and 60.67% and 51.42% and the “CD4+cells in total cells (%)” value (T lymphocyte; [8]) was 24.48% and 26.48% and 22.29%. For the same compound, the “CFSE-CD4+cells in CFSE-cells (%)” value (T lymphocyte; [8]) was 46.81% and 55.67% and 30.69%, the “CD4+cells in total cells (%)” value (T lymphocyte; [9]) was 21.17% and 21.09% and 21.21% and the “CFSE-CD4+cells in CFSE-cells (%)” value (T lymphocyte; [9]) was 34.98% and 45.24% and 51.76%. The lymphocyte proliferation (T lymphocyte; human lymphocytes, in words) was “did not change lymphocyte proliferation”, the OC numbers ([1]; H226A RANKL 0 ng/mL) was 36 and 29 and the OC numbers ([1]; H226A RANKL 50 ng/mL) was 173 and 156 and 170. For the same compound, the OC numbers ([1]; H226A RANKL 200 ng/mL) was 113 and 121 and 125, the “osteoclast formation (fig. S4b)” value ([1]; W194A RANKL 0 ng/mL) was 34 and 49 and 27 and the “osteoclast formation (fig. S4b)” value ([1]; W194A RANKL 50 ng/mL) was 147 and 144 and 140. For the same compound, the “osteoclast formation (fig. S4b)” value ([1]; W194A RANKL 200 ng/mL) was 145 and 199 and 158 and the “osteoclast formation (fig. S4b)” value ([1]; W194A RANKL 400 ng/mL) was 119 and 118 and 97.
